Consider one molecule from patent US9034368B2 (PUREPHARM INC., priority 2002, dated 2015).

Data set [1] deals with excessive sweating. The following applies: patient 3: topical application (1% pads and 1% spray).
Data set [2] relates to hyperhidrosis and gustatory sweating. The following applies: cited from earlier work.
The conditions of data set [3]: Hay 1982; roll-on solution, distilled water; concentrations above 2%; cited from earlier work.

Take `C[N+]1(C)CCC(OC(=O)C(O)(c2ccccc2)C2CCCC2)C1` (stereo not shown) [glycopyrrolate]: the side effects entry in data set [1] is listed as “not experienced any side effects”. The “efficacy of topical concentration” value in data set [2] (0.1% concentration, Hays 1978) was “ineffective”. The “efficacy of solution versus cream” value in data set [2] (Hay 1982, 2 & 4% HEB cream base) is on record as “Solution worked better than”. Moreover, in data set [2] (May 1989, 0.5 & 2.0% roll-on, 2.0% cream, almost all patients), the relief of sweating entry is “total or partial relief. Placebo”. For the same molecule, in data set [2] (Seukeran 1998, 0.50% aqueous solution), the efficacy entry is recorded as “Worked well”. Further, in data set [2] (topical, Hays 1978), the “concentration after which mild side effects begin to present themselves” value is listed as > 4%. Also, in data set [3], the crystallisation from solution result was “Glycopyrrolate crystalized out”.
